ChEMBL document CHEMBL1909544, “Renin inhibitors for the treatment of hypertension: design and optimization of a novel series of tertiary alcohol-bearing piperidines” (Bioorg Med Chem Lett, 2011)

Key:
Type in all cases: ADME, organism-based
[1] = Oral bioavailability in Sprague-Dawley rat at 3 mg/kg; details: in vivo
[2] = AUC in Sprague-Dawley rat at 3 mg/kg, po; parameters: dose 3 mg/kg, route oral; details: plasma
[3] = Clearance in Sprague-Dawley rat at 3 mg/kg, po and 5 mg/kg, iv; details: in vivo
[4] = Half life in Sprague-Dawley rat at 3 mg/kg, po and 5 mg/kg, iv; details: in vivo
[5] = Volume of distribution at steady state in Sprague-Dawley rat at 3 mg/kg, po and 5 mg/kg, iv; details: in vivo, read-out: Vdss
[6] = Oral bioavailability in Sprague-Dawley rat at 0.3 mg/kg; details: in vivo
[7] = Oral bioavailability in Sprague-Dawley rat at 30 mg/kg; details: in vivo
[8] = Clearance in Sprague-Dawley rat at 5 mg/kg, iv; parameters: dose 5 mg/kg, route intravenous; details: in vivo
[9] = Half life in Sprague-Dawley rat at 5 mg/kg, iv; parameters: dose 5 mg/kg, route intravenous; details: in vivo
[10] = Volume of distribution at steady state in Sprague-Dawley rat at 5 mg/kg, iv; parameters: dose 5 mg/kg, route intravenous; details: in vivo, read-out: Vdss

bioavailability [1] | AUC [2] | clearance [3] | half-life [4] | Vd [5] | bioavailability [6] | bioavailability [7] | clearance [8] | half-life [9] | Vd [10] | SMILES
37% | 0.34 µM·h | 93 mL/min/kg | 9.4 h | 48 L/kg |  |  |  |  |  | O=C([C@H]1CNCC[C@]1(O)c1ccc(F)c(F)c1)N(Cc1cn(Cc2cccc(F)c2)c2cccc(F)c12)C1CC1 (racemic)
29% |  |  |  |  | 17% | 18% | 36 mL/min/kg | 1.5 h | 5 L/kg | COCCCc1cc(CN(C(=O)C2CNCCC2(O)c2ccc(F)c(F)c2)C2CC2)cc(OCCOC)c1 (single isomer, unassigned)
< 1% | 0.04 µM·h | 16 mL/min/kg | 2.6 h | 0.4 L/kg |  |  |  |  |  | O=C([C@H]1CNCC[C@]1(OCC(O)CO)c1ccc(F)c(F)c1)N(Cc1cn(Cc2cccc(F)c2)c2cccc(F)c12)C1CC1 (mixture of isomers)
